In patent US20120029187A1, “HALOALKYLSULFONANILIDE DERIVATIVE” (Nissan Chemical Industries, Ltd., priority 2009, published 2012):

Tests used:
Format in all cases: in vivo
barnyardgrass [1] = experiment: Test Example 1: herbicidal effects in preemergence treatment under submerged conditions; settings: dose 2.52 g/a
Text: (§1) Test on the Herbicidal Effects in Preemergence Treatment on Weeds Under Submerged Conditions
(§2) Alluvial soil was put in 1/30000-are styrol cups and admixed with water so that it was submerged at a depth of 4 cm. In each cup, seeds of barnyardgrass, bulrush and ducksalad were sown together, and rice seedlings at the 2.5-leaf stage were transplanted. On the same day as the seeding, emulsifiable concentrates containing compounds of the present invention formulated in accordance with Formulation Example 2 were applied to the water surfaces at predetermined doses after diluted with water. The cups were placed in a greenhouse at 25 to 30° C. to grow the plants. Three weeks after the application, the herbicidal effects against various plants were determined on the following evaluation scale.
(§3) 5 mortality of 90% or above (nearly complete death)
(§4) 4 mortality of at least 70% and less than 90%
(§5) 3 mortality of at least 40% and less than 70%
(§6) 2 mortality of at least 20% and less than 40%
(§7) 1 mortality of at least 5% and less than 20%
(§8) 0 mortality of less than 5% (almost ineffective)
(§9) A: barnyardgrass, B: bulrush, C: ducksalad, D: large crabgrass, E: giant foxtail, F: wild oat, G: water foxtail, H: Italian ryegrass, I: velvetleaf, J: common ragweed, K: redroot pigweed, L: common lambsquater, M: posumbu knotweed, N: common chickweed, O: beadstraw, a: transplanted rice, b: corn, c: soybean, d: direct-seeded rice, e: wheat, f: sugar beet.
(§10) The doses (g/a) represents the amounts in g per 1 are (a) applied after adjustment of concentration adjustment.

bulrush [2] = experiment: as above; settings: dose 2.52 g/a
Text: as §1, §2, §3, §4, §5, §6, §7, §8, §9, §10

ducksalad [3] = experiment: as above; settings: dose 2.52 g/a
Text: as §1, §2, §3, §4, §5, §6, §7, §8, §9, §10

transplanted rice = experiment: Test Example 1: preemergence treatment under submerged conditions, effect on crop; settings: dose 2.52 g/a
Text: as §1, §2, §3, §4, §5, §6, §7, §8, §9, §10

barnyardgrass [4] = experiment: Test Example 2: herbicidal effects during the vegetation period under submerged conditions; settings: treatment during the vegetation period under submerged conditions; dose 2.52 g/a
Method: (§11) Test on the Herbicidal Effects on Weeds During the Vegetation Period Under Submerged Conditions
(§12) Alluvial soil was put in 1/30000-are styrol cups and admixed with water so that it was submerged at a depth of 4 cm. In each cup, seeds of barnyardgrass, bulrush and ducksalad were sown together, and the cups were placed in a greenhouse at 25 to 30° C. to grow the plants. When the barnyardgrass, bulrush and ducksalad reached the 1- or 2-leaf stage, emulsifiable concentrates containing compounds of the present invention formulated in accordance with Formulation Example 2 were applied to the water surfaces at predetermined doses after diluted with water. Three weeks after the application, the herbicidal effects against various plants were determined on the same evaluation scale as in Test Example 1.
as §9, §10

bulrush [5] = experiment: as above; settings: treatment during the vegetation period under submerged conditions; dose 2.52 g/a
Method: as §11, §12, §9, §10

ducksalad [6] = experiment: as above; settings: treatment during the vegetation period under submerged conditions; dose 2.52 g/a
Method: as §11, §12, §9, §10

Italian ryegrass [7] = experiment: Test Example 3: herbicidal effects in soil treatment; settings: dose 3.2 g/a
Text: (§13) Test on the Herbicidal Effects in Soil Treatment
(§14) Sterilized diluvial soil was put in plastic boxes with a length of 21 cm, a width of 13 cm and a depth of 7 cm, and seeds of barnyardgrass, large crabgrass, giant foxtail, wild oat, blackgrass, velvetleaf, common ragweed, redroot pigweed, common lambsquater, posumbu knotweed, common chickweed corn, soybean, rice, wheat and sugar beet were sown in spots and covered with an about 1.5 cm-thick soil layer. Emulsifiable concentrates containing compounds of the present invention formulated in accordance with Formulation Example 2 were uniformly applied to the soil surfaces at predetermined doses through a small sprayer after dilute with water. Three weeks after the application, the herbicidal effects against various plants were determined on the same evaluation scale as in Test Example 1.
as §9, §10

barnyardgrass [8] = experiment: as above; settings: dose 3.2 g/a
Text: as §13, §14, §9, §10

common chickweed [9] = experiment: as above; settings: dose 3.2 g/a
Text: as §13, §14, §9, §10

common lambsquater [10] = experiment: as above; settings: dose 3.2 g/a
Text: as §13, §14, §9, §10

common ragweed [11] = experiment: as above; settings: dose 3.2 g/a
Text: as §13, §14, §9, §10

giant foxtail [12] = experiment: as above; settings: dose 3.2 g/a
Text: as §13, §14, §9, §10

large crabgrass [13] = experiment: as above; settings: dose 3.2 g/a
Text: as §13, §14, §9, §10

posumbu knotweed [14] = experiment: as above; settings: dose 3.2 g/a
Text: as §13, §14, §9, §10

redroot pigweed [15] = experiment: as above; settings: dose 3.2 g/a
Text: as §13, §14, §9, §10

water foxtail [16] = experiment: as above; settings: dose 3.2 g/a
Text: as §13, §14, §9, §10

Italian ryegrass [17] = experiment: Test Example 4: herbicidal effect in foliage treatment; settings: dose 3.2 g/a, three weeks after application
Text: (§15) Test on the Herbicidal Effect in Foliage Treatment
as §14, with “chickweed,” for “chickweed”, “The boxes were placed in a greenhouse at 25 to 30° C. to grow the plants. After 14 days, emulsifiable” for “Emulsifiable”, “foliage” for “soil surfaces”, “diluted” for “dilute”
as §9, §10

barnyardgrass [18] = experiment: as above; settings: dose 3.2 g/a, three weeks after application
Text: as §15
as §14, with “chickweed,” for “chickweed”, “The boxes were placed in a greenhouse at 25 to 30° C. to grow the plants. After 14 days, emulsifiable” for “Emulsifiable”, “foliage” for “soil surfaces”, “diluted” for “dilute”
as §9, §10

beadstraw = experiment: as above; settings: dose 3.2 g/a, three weeks after application
Text: as §15
as §14, with “chickweed,” for “chickweed”, “The boxes were placed in a greenhouse at 25 to 30° C. to grow the plants. After 14 days, emulsifiable” for “Emulsifiable”, “foliage” for “soil surfaces”, “diluted” for “dilute”
as §9, §10

common chickweed [19] = experiment: as above; settings: dose 3.2 g/a, three weeks after application
Text: as §15
as §14, with “chickweed,” for “chickweed”, “The boxes were placed in a greenhouse at 25 to 30° C. to grow the plants. After 14 days, emulsifiable” for “Emulsifiable”, “foliage” for “soil surfaces”, “diluted” for “dilute”
as §9, §10

common lambsquater [20] = experiment: as above; settings: dose 3.2 g/a, three weeks after application
Text: as §15
as §14, with “chickweed,” for “chickweed”, “The boxes were placed in a greenhouse at 25 to 30° C. to grow the plants. After 14 days, emulsifiable” for “Emulsifiable”, “foliage” for “soil surfaces”, “diluted” for “dilute”
as §9, §10

common ragweed [21] = experiment: as above; settings: dose 3.2 g/a, three weeks after application
Text: as §15
as §14, with “chickweed,” for “chickweed”, “The boxes were placed in a greenhouse at 25 to 30° C. to grow the plants. After 14 days, emulsifiable” for “Emulsifiable”, “foliage” for “soil surfaces”, “diluted” for “dilute”
as §9, §10

giant foxtail [22] = experiment: as above; settings: dose 3.2 g/a, three weeks after application
Text: as §15
as §14, with “chickweed,” for “chickweed”, “The boxes were placed in a greenhouse at 25 to 30° C. to grow the plants. After 14 days, emulsifiable” for “Emulsifiable”, “foliage” for “soil surfaces”, “diluted” for “dilute”
as §9, §10

large crabgrass [23] = experiment: as above; settings: dose 3.2 g/a, three weeks after application
Text: as §15
as §14, with “chickweed,” for “chickweed”, “The boxes were placed in a greenhouse at 25 to 30° C. to grow the plants. After 14 days, emulsifiable” for “Emulsifiable”, “foliage” for “soil surfaces”, “diluted” for “dilute”
as §9, §10

posumbu knotweed [24] = experiment: as above; settings: dose 3.2 g/a, three weeks after application
Text: as §15
as §14, with “chickweed,” for “chickweed”, “The boxes were placed in a greenhouse at 25 to 30° C. to grow the plants. After 14 days, emulsifiable” for “Emulsifiable”, “foliage” for “soil surfaces”, “diluted” for “dilute”
as §9, §10

redroot pigweed [25] = experiment: as above; settings: dose 3.2 g/a, three weeks after application
Text: as §15
as §14, with “chickweed,” for “chickweed”, “The boxes were placed in a greenhouse at 25 to 30° C. to grow the plants. After 14 days, emulsifiable” for “Emulsifiable”, “foliage” for “soil surfaces”, “diluted” for “dilute”
as §9, §10

velvetleaf = experiment: as above; settings: dose 3.2 g/a, three weeks after application
Text: as §15
as §14, with “chickweed,” for “chickweed”, “The boxes were placed in a greenhouse at 25 to 30° C. to grow the plants. After 14 days, emulsifiable” for “Emulsifiable”, “foliage” for “soil surfaces”, “diluted” for “dilute”
as §9, §10

water foxtail [26] = experiment: as above; settings: dose 3.2 g/a, three weeks after application
Text: as §15
as §14, with “chickweed,” for “chickweed”, “The boxes were placed in a greenhouse at 25 to 30° C. to grow the plants. After 14 days, emulsifiable” for “Emulsifiable”, “foliage” for “soil surfaces”, “diluted” for “dilute”
as §9, §10

CC1(C(F)(F)F)CC(=O)N(Cc2ccccc2N(C(=O)C2CC2)S(=O)(=O)C(F)(F)F)CO1 (centres unmarked) [II-48]
A: barnyardgrass, herbicidal effect (evaluation scale 0-5) (barnyardgrass [1]): 5 (mortality of 90% or above (nearly complete death)) | B: bulrush, herbicidal effect (evaluation scale 0-5) (bulrush [2]): 5 (mortality of 90% or above (nearly complete death)) | C: ducksalad, herbicidal effect (evaluation scale 0-5) (ducksalad [3]): 5 (mortality of 90% or above (nearly complete death)) | a: transplanted rice, effect on crop (evaluation scale 0-5) (transplanted rice): 0 (mortality of less than 5% (almost ineffective)) | A: barnyardgrass, herbicidal effect (evaluation scale 0-5) (barnyardgrass [4]): 5 (mortality of 90% or above (nearly complete death)) | B: bulrush, herbicidal effect (evaluation scale 0-5) (bulrush [5]): 5 (mortality of 90% or above (nearly complete death)) | C: ducksalad, herbicidal effect (evaluation scale 0-5) (ducksalad [6]): 5 (mortality of 90% or above (nearly complete death)) | H: Italian ryegrass, herbicidal effect (evaluation scale 0-5) (Italian ryegrass [7]): 0 (mortality of less than 5% (almost ineffective)) | A: barnyardgrass, herbicidal effect (evaluation scale 0-5) (barnyardgrass [8]): 5 (mortality of 90% or above (nearly complete death)) | N: common chickweed, herbicidal effect (evaluation scale 0-5) (common chickweed [9]): 4 (mortality of at least 70% and less than 90%) | L: common lambsquater, herbicidal effect (evaluation scale 0-5) (common lambsquater [10]): 0 (mortality of less than 5% (almost ineffective)) | J: common ragweed, herbicidal effect (evaluation scale 0-5) (common ragweed [11]): 4 (mortality of at least 70% and less than 90%) | E: giant foxtail, herbicidal effect (evaluation scale 0-5) (giant foxtail [12]): 4 (mortality of at least 70% and less than 90%) | D: large crabgrass, herbicidal effect (evaluation scale 0-5) (large crabgrass [13]): 5 (mortality of 90% or above (nearly complete death)) | M: posumbu knotweed, herbicidal effect (evaluation scale 0-5) (posumbu knotweed [14]): 3 (mortality of at least 40% and less than 70%) | K: redroot pigweed, herbicidal effect (evaluation scale 0-5) (redroot pigweed [15]): 0 (mortality of less than 5% (almost ineffective)) | G: water foxtail, herbicidal effect (evaluation scale 0-5) (water foxtail [16]): 5 (mortality of 90% or above (nearly complete death)) | H: Italian ryegrass, herbicidal effect (Italian ryegrass [17]): 0 (mortality of less than 5% (almost ineffective)) | A: barnyardgrass, herbicidal effect (barnyardgrass [18]): 4 (mortality of at least 70% and less than 90%) | O: beadstraw, herbicidal effect (beadstraw): 4 (mortality of at least 70% and less than 90%) | N: common chickweed, herbicidal effect (common chickweed [19]): 3 (mortality of at least 40% and less than 70%) | L: common lambsquater, herbicidal effect (common lambsquater [20]): 0 (mortality of less than 5% (almost ineffective)) | J: common ragweed, herbicidal effect (common ragweed [21]): 2 (mortality of at least 20% and less than 40%) | E: giant foxtail, herbicidal effect (giant foxtail [22]): 2 (mortality of at least 20% and less than 40%) | D: large crabgrass, herbicidal effect (large crabgrass [23]): 1 (mortality of at least 5% and less than 20%) | M: posumbu knotweed, herbicidal effect (posumbu knotweed [24]): 2 (mortality of at least 20% and less than 40%) | K: redroot pigweed, herbicidal effect (redroot pigweed [25]): 0 (mortality of less than 5% (almost ineffective)) | I: velvetleaf, herbicidal effect (velvetleaf): 4 (mortality of at least 70% and less than 90%) | G: water foxtail, herbicidal effect (water foxtail [26]): 2 (mortality of at least 20% and less than 40%)
